The results in this text go back to US20250228865A1, “COMPOUNDS FOR ENHANCING READ THROUGH OF GENES CONTAINING PREMATURE TERMINATION CODONS AND METHODS FOR MAKING AND USING THE SAME” (Sanofi US Services Inc., priority 2022, published 2025).

pEC50: −log10 of the molar value.

Experiment [1] has as its system recombinant human CFTR carrying the premature stop codon (PTC) mutation R1162X. The experiment in a line: CFTR-PTC mutant translation readthrough, Nanoluc tagged CFTR luminescence (R1162X cell line). Type of experiment: cell-based. To be noted: for pEC50: in combination with G418, 16HBE cells, read-out: CFTR R1162X ACTIVITY EC50; for CFTR R1162X ACTIVITY Fold 10 μM G-418: fold over 10 μM G-418, in combination with G418. In outline: (§1)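 Readthrough is the 48 h compound-induced luminescence increase scaled to that of maximal G418 (125-250 μM). Compounds run from 50 μM final in 2-fold steps, ±10 μM G418, on 16HBE lines carrying Nanoluc-tagged CFTR G542X (extracellular loop 4 tag) or R1162X (C-terminal tag), with 3 μM VX-809 present.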

The subject of experiment [2] is recombinant human CFTR carrying the premature stop codon (PTC) mutation G542X. Nature of the experiment: CFTR-PTC mutant translation readthrough, Nanoluc tagged CFTR luminescence (G542X cell line). To be noted: in combination with G418, G542X cell line; for pEC50: 16HBE cells; for CFTR G542X ACTIVITY Fold 10 μM G-418: fold over 10 μM G-418. Type of experiment: cell-based. In outline: as §1

In the case of `O=C(O)C1CCCN(c2ncc(OCc3c(Cl)cccc3C(F)(F)F)cn2)C1` (centres unmarked) [1-(5-{[2-chloro-6-(trifluoromethyl)phenyl]methoxy]pyrimidin-], the pEC50 (in general, the EC50 on a negative log10 scale, so that one unit is a factor of ten) in experiment [1] is under 5.00; in experiment [2], 5.00 to 6.00.
Turning to `OCc1cc(-c2ccc(OCc3c(Cl)cccc3Cl)cc2)no1` [[3-[4-[(2,6-dichlorophenyl)methoxy]phenyl]isoxazol-5-yl]methanol], in experiment [1], the “CFTR R1162X ACTIVITY Fold 10 μM G-418” value is reported as “A′ (A′ = ≥10X)” and the pEC50 is 5.00 to 6.00. Also, in experiment [2], the “CFTR G542X ACTIVITY Fold 10 μM G-418” value is on record as “A′ (A′ = ≥10X)” and the pEC50 is 5.00 to 6.00.
With `OCC1CN(c2ncc(OCc3c(Cl)cccc3C(F)(F)F)cn2)CCO1` (centres unmarked), in experiment [1], the “CFTR R1162X ACTIVITY Fold 10 μM G-418” value is listed as “A′ (A′ = ≥10X)” and the pEC50 is over 6.00. For the same compound, in experiment [2], the “CFTR G542X ACTIVITY Fold 10 μM G-418” value is “A′ (A′ = ≥10X)” and the pEC50 was over 6.00.
Consider `COc1cccc(Cl)c1COc1ccc(N2CC(CO)OC2=O)cc1` (centres unmarked), for which, in experiment [1], the “CFTR R1162X ACTIVITY Fold 10 μM G-418” value is “C′ (C′ = <5X)” and the pEC50 is under 5.00. Moreover, in experiment [2], the “CFTR G542X ACTIVITY Fold 10 μM G-418” value is recorded as “C′ (C′ = <5X)” and the pEC50 is under 5.00.
In the case of `CC(=O)NCC1CN(c2ncc(OCc3c(Cl)cccc3Cl)cn2)CCO1` (centres unmarked), in experiment [1], the “CFTR R1162X ACTIVITY Fold 10 μM G-418” value is “A′ (A′ = ≥10X)” and the pEC50 was 5.00 to 6.00. Moreover, in experiment [2], the “CFTR G542X ACTIVITY Fold 10 μM G-418” value is recorded as “A′ (A′ = ≥10X)” and the pEC50 is over 6.00.
In the case of `OCc1cnn(-c2ncc(OCc3c(Cl)cccc3Cl)cn2)n1` [[2-[5-[(2,6-dichlorophenyl)methoxy]pyrimidin-2-yl]triazol-4-yl]methanol], in experiment [1], the “CFTR R1162X ACTIVITY Fold 10 μM G-418” value is reported as “A′ (A′ = ≥10X)” and the pEC50 was 5.00 to 6.00. Besides, in experiment [2], the “CFTR G542X ACTIVITY Fold 10 μM G-418” value was “A′ (A′ = ≥10X)” and the pEC50 was 5.00 to 6.00.
Turning to `FC(F)(F)c1cccc(Cl)c1COc1cnc(N2CCC3(CCCNC3)C2)nc1` (centres unmarked), in experiment [1], the “CFTR R1162X ACTIVITY Fold 10 μM G-418” value is on record as “A′ (A′ = ≥10X)” and the pEC50 is 5.00 to 6.00. Also, in experiment [2], the “CFTR G542X ACTIVITY Fold 10 μM G-418” value is listed as “A′ (A′ = ≥10X)” and the pEC50 is under 5.00.
As for `OC[C@H]1CN(c2ncc(OCc3c(Cl)cccc3Cl)cn2)CCO1` [[(2R)-4-[5-[(2,6-dichlorophenyl)methoxy]pyrimidin-2-yl]morpholin-2-yl]methanol], in experiment [1], the “CFTR R1162X ACTIVITY Fold 10 μM G-418” value is on record as “A′ (A′ = ≥10X)” and the pEC50 was 5.00 to 6.00. In experiment [2], the “CFTR G542X ACTIVITY Fold 10 μM G-418” value is “A′ (A′ = ≥10X)” and the pEC50 is 5.00 to 6.00.
Consider `C[C@H]1CO[C@H](CO)CN1c1ncc(OCc2c(Cl)cccc2Cl)cn1` (racemic), for which, in experiment [1], the “CFTR R1162X ACTIVITY Fold 10 μM G-418” value is on record as “A′ (A′ = ≥10X)” and the pEC50 was 5.00 to 6.00. In addition, in experiment [2], the “CFTR G542X ACTIVITY Fold 10 μM G-418” value was “A′ (A′ = ≥10X)” and the negative-log EC50 (pEC50) was 5.00 to 6.00.
For the compound `O=C(O)C1CN(c2ncc(OCc3c(Cl)cccc3C(F)(F)F)cn2)CCO1` (centres unmarked) [4-(5-{[2-chloro-6-(trifluoromethyl)phenyl]methoxy}pyrimidin-], the pEC50 in experiment [1] is under 5.00; in experiment [2] it was 5.00 to 6.00.
In the case of `COC(=O)c1ncn(-c2ccc(OCc3c(C)cccc3C(F)(F)F)cc2)n1`, in experiment [1], the “CFTR R1162X ACTIVITY Fold 10 μM G-418” value was “A′ (A′ = ≥10X)” and the pEC50 is 5.00 to 6.00. Moreover, in experiment [2], the “CFTR G542X ACTIVITY Fold 10 μM G-418” value is given as “A′ (A′ = ≥10X)” and the pEC50 is over 6.00.
For the compound `Cc1cccc(C(F)(F)F)c1COc1ccc(N2C[C@@H](CO)NC2=O)nc1`, in experiment [1], the “CFTR R1162X ACTIVITY Fold 10 μM G-418” value is “A′ (A′ = ≥10X)” and the pEC50 is over 6.00. In experiment [2], the “CFTR G542X ACTIVITY Fold 10 μM G-418” value was “A′ (A′ = ≥10X)” and the pEC50 is over 6.00.
Regarding `CC(C)C1NC(=O)N(c2ccc(OCc3c(Cl)cccc3C(F)(F)F)cc2)C1=O` (centres unmarked), in experiment [1], the “CFTR R1162X ACTIVITY Fold 10 μM G-418” value is on record as “B′ (B′ = ≥5X to <10X)” and the pEC50 was 5.00 to 6.00. In experiment [2], the “CFTR G542X ACTIVITY Fold 10 μM G-418” value is recorded as “A′ (A′ = ≥10X)” and the pEC50 was over 6.00.
`O=C1OCC2CN(c3ncc(OCc4c(Cl)cccc4Cl)cn3)CCN12` (centres unmarked): in experiment [1], the “CFTR R1162X ACTIVITY Fold 10 μM G-418” value was “B′ (B′ = ≥5X to <10X)” and the pEC50 is 5.00 to 6.00. In addition, in experiment [2], the “CFTR G542X ACTIVITY Fold 10 μM G-418” value is “A′ (A′ = ≥10X)” and the pEC50 was 5.00 to 6.00.
Turning to `O=C1OC(CO)CN1c1ccc(OCc2c(Cl)cccc2C(F)(F)F)cn1` (centres unmarked), in experiment [1], the “CFTR R1162X ACTIVITY Fold 10 μM G-418” value was “A′ (A′ = ≥10X)” and the pEC50 is 5.00 to 6.00. Also, in experiment [2], the “CFTR G542X ACTIVITY Fold 10 μM G-418” value is on record as “A′ (A′ = ≥10X)” and the pEC50 is over 6.00.
As for `Cc1cccc(C(F)(F)F)c1COc1cnc(-n2ncc(-c3ccccn3)n2)nc1`, in experiment [1], the “CFTR R1162X ACTIVITY Fold 10 μM G-418” value was “A′ (A′ = ≥10X)” and the pEC50 was over 6.00. For the same compound, in experiment [2], the “CFTR G542X ACTIVITY Fold 10 μM G-418” value is “A′ (A′ = ≥10X)” and the pEC50 was over 6.00.
As to `O=C1COC(=O)N1c1ccc(OCc2c(Cl)cccc2Cl)cc1` [3-[4-[(2,6-dichlorophenyl)methoxy]phenyl]oxazolidine-2,4-dione], in experiment [1], the “CFTR R1162X ACTIVITY Fold 10 μM G-418” value is “C′ (C′ = <5X)” and the pEC50 was 5.00 to 6.00. Also, in experiment [2], the “CFTR G542X ACTIVITY Fold 10 μM G-418” value is given as “B′ (B′ = ≥5X to <10X)” and the pEC50 was 5.00 to 6.00.
For `NS(=O)(=O)N1CCN(c2ncc(OCc3c(Cl)cccc3Cl)cn2)CC1` [4-[5-[(2,6-dichlorophenyl)methoxy]pyrimidin-2-yl]piperazine-1-sulfonamide], in experiment [1], the “CFTR R1162X ACTIVITY Fold 10 μM G-418” value is on record as “A′ (A′ = ≥10X)” and the pEC50 was under 5.00. In addition, in experiment [2], the “CFTR G542X ACTIVITY Fold 10 μM G-418” value is “A′ (A′ = ≥10X)” and the pEC50 is 5.00 to 6.00.
Turning to `NCc1nnc(-c2ccc(OCc3c(Cl)cccc3Cl)cc2)o1` [Example 226, [5-[4-[(2,6-dichlorophenyl)methoxy]phenyl]-1,3,4-oxadiazol-2-yl]methanamine], in experiment [1], the “CFTR R1162X ACTIVITY Fold 10 μM G-418” value is on record as “B′ (B′ = ≥5X to <10X)” and the pEC50 was 5.00 to 6.00. Besides, in experiment [2], the “CFTR G542X ACTIVITY Fold 10 μM G-418” value was “B′ (B′ = ≥5X to <10X)” and the pEC50 was 5.00 to 6.00.
`Cc1cccc(C(F)(F)F)c1COc1ccc(-n2cnc(C(=O)O)n2)cc1`: in experiment [1], the “CFTR R1162X ACTIVITY Fold 10 μM G-418” value is “A′ (A′ = ≥10X)” and the pEC50 is 5.00 to 6.00. Moreover, in experiment [2], the “CFTR G542X ACTIVITY Fold 10 μM G-418” value is listed as “A′ (A′ = ≥10X)” and the pEC50 is 5.00 to 6.00.
In the case of `OC[C@H]1CN(c2ncc(OCc3c(Cl)cccc3C(F)(F)F)cn2)CCO1`, in experiment [1], the “CFTR R1162X ACTIVITY Fold 10 μM G-418” value is “A′ (A′ = ≥10X)” and the pEC50 is over 6.00. In addition, in experiment [2], the “CFTR G542X ACTIVITY Fold 10 μM G-418” value is given as “A′ (A′ = ≥10X)” and the pEC50 was over 6.00.
For the compound `OCCn1cc(-c2ccc(OCc3c(Cl)cccc3Cl)cc2)nn1` [2-[4-[4-[(2,6-dichlorophenyl)methoxy]phenyl]triazol-1-yl]ethanol], in experiment [1], the “CFTR R1162X ACTIVITY Fold 10 μM G-418” value is reported as “A′ (A′ = ≥10X)” and the pEC50 was 5.00 to 6.00. Also, in experiment [2], the “CFTR G542X ACTIVITY Fold 10 μM G-418” value is listed as “B′ (B′ = ≥5X to <10X)” and the pEC50 was 5.00 to 6.00.
As for `N#Cc1ccn(-c2ncc(OCc3c(Cl)cccc3Cl)cn2)n1` [1-[5-[(2,6-dichlorophenyl)methoxy]pyrimidin-2-yl]pyrazole-3-carbonitrile], in experiment [1], the “CFTR R1162X ACTIVITY Fold 10 μM G-418” value is recorded as “B′ (B′ = ≥5X to <10X)” and the pEC50 was over 6.00. Moreover, in experiment [2], the “CFTR G542X ACTIVITY Fold 10 μM G-418” value was “A′ (A′ = ≥10X)” and the pEC50 was 5.00 to 6.00.
`O=C1OC(CO)CN1c1cnc(OCc2c(Cl)cccc2Cl)cn1` (centres unmarked): in experiment [1], the “CFTR R1162X ACTIVITY Fold 10 μM G-418” value is recorded as “B′ (B′ = ≥5X to <10X)” and the pEC50 was under 5.00. Also, in experiment [2], the “CFTR G542X ACTIVITY Fold 10 μM G-418” value was “B′ (B′ = ≥5X to <10X)” and the pEC50 was 5.00 to 6.00.
